# Measured values taken from ChEMBL document CHEMBL4619734, “Molecule Property Analyses of Active Compounds for Mycobacterium tuberculosis” (J Med Chem, 2020).
# How the values were obtained:
# [1] = tested on: Mycobacterium tuberculosis; assay: Antimycobacterial activity against Mycobacterium tuberculosis; type: functional
# [2] = tested on: Mycolicibacterium smegmatis; assay: Antimycobacterial activity against Mycobacterium smegmatis; type: functional
# [3] = tested on: Mycobacterium tuberculosis; assay: Antimycobacterial activity against Mycobacterium tuberculosis H37Rv; type: functional
# [4] = tested on: Mycobacterium tuberculosis; assay: Antimycobacterial activity against Mycobacterium tuberculosis H37Rv expressing LeuRS; type: functional
# Leucine--tRNA ligase = target: T1, Leucine--tRNA ligase (Mycobacterium tuberculosis (strain ATCC 25618 / H37Rv), UniProt P9WFV1); assay: Inhibition of Mycobacterium tuberculosis LeuRS expressed in Escherichia coli Rosetta (DE3) cells
# T1 sequence (P9WFV1 whole entry): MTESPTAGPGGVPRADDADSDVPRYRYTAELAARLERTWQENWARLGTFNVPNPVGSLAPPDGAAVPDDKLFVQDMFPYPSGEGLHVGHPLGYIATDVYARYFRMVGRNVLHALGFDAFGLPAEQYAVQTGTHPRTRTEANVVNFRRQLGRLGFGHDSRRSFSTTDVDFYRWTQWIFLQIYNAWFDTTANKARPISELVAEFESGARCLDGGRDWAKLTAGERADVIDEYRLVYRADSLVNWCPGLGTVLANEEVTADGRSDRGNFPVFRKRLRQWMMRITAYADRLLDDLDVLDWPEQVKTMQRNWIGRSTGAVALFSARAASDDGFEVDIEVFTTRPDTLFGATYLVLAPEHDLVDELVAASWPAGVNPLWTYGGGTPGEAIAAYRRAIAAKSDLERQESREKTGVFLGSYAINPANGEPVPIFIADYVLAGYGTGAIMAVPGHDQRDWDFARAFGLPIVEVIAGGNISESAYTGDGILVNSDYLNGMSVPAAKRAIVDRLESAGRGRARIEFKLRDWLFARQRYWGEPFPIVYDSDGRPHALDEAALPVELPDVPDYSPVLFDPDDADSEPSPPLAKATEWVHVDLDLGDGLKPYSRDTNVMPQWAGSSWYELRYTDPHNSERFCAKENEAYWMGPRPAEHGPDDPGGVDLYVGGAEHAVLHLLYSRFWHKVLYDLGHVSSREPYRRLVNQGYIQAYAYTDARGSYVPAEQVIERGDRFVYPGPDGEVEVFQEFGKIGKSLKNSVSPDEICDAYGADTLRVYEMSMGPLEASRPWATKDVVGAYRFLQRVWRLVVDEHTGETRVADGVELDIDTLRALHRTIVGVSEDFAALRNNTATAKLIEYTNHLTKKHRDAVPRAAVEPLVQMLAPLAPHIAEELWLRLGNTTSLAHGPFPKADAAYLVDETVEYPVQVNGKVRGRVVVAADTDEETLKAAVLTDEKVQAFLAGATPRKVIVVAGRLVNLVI
# [5] = Inhibition of human cytoplasmic LeuRS
# [6] = tested on: Mycobacterium tuberculosis; assay: Antimycobacterial activity against Mycobacterium tuberculosis expressing Rv1258c efflux pump; type: functional
# [7] = tested on: Mycobacterium tuberculosis; assay: Antimycobacterial activity against Mycobacterium tuberculosis H37Ra after 7 to 8 days by MABA assay; type: functional
# [8] = tested on: Mycobacterium tuberculosis; assay: Antimycobacterial activity against Mycobacterium tuberculosis expressing DprE1; type: functional
# Mycobacterium avium [9] = assay: Antimycobacterial activity against Mycobacterium avium 33 expressing MraY; type: functional
# [10] = tested on: Mycobacterium tuberculosis; assay: Antimycobacterial activity against Mycobacterium tuberculosis expressing WecA; type: functional
# [11] = tested on: Mycobacterium tuberculosis; assay: Antimycobacterial activity against Mycobacterium tuberculosis clinical isolates; type: functional
# Mycobacterium avium [12] = assay: Antimycobacterial activity against Mycobacterium avium infected in mouse assessed as reduction in mycolic acids synthesis; type: functional
# [13] = tested on: Mycobacterium tuberculosis; assay: Antimycobacterial activity against Mycobacterium tuberculosis H37Rv ATCC 27294 assessed as reduction in mycolic acids synthesis after 8 hrs in presence of [1, 2-14C]-acetate by TLC analysis; type: functional; details: H37Rv ATCC 27294, 8 h
compound,measurement,setting,value
NC(=O)c1sc(N2CCOCC2)cc1OCCc1ccc(OC(F)(F)F)cc1,MIC,[1],0.24 µM
COc1nc2ccc(Br)cc2cc1[C@@H](c1ccccc1)[C@@](O)(CCN(C)C)c1cccc2ccccc12 [BEDAQUILINE],MIC99,[2],0.03 µg/mL
CCCCS(=O)(=O)Nc1ccc2cnn(C)c2c1,MIC,[3],0.8 µM
NC[C@H]1OB(O)c2c(OCCO)ccc(Cl)c21,MIC,[4],0.08 µM
same,IC50,Leucine--tRNA ligase,216 nM
same,IC50,[5],140 µM
Cc1ccc(OCCCCCCn2ccnc2)c(C)c1,MIC,[1],4.8 µg/mL
Cc1c(C(=O)C2CC2)[n+]([O-])c2cc(Cl)c(Cl)cc2[n+]1[O-],MIC,[1],1.2 µg/mL
O=[N+]([O-])c1ccc(/C=N/Nc2nc(Nc3ccccc3)nc(Nc3ccccc3)n2)o1,MIC,[1],0.078 µM
CN[C@H]1[C@@H](O)[C@@H](NC)CC2O[C@@H]3O[C@H](C)C[C@@H](NC(=O)Cc4ccc(Cl)cn4)[C@]3(O)C[C@@H]21 (some centres not stated),MIC,[6],0.8 µg/mL
CCCCCCCCc1nc2cc(C)c(C)cc2[nH]1,MIC90,[1],0.75 µM
CCCCCCCCCCNC(CC(=O)OCC)[C@H]1O[C@@H]2OC(C)(C)O[C@@H]2C1OC (some centres not stated),MIC,[7],3.12 µg/mL
O=[N+]([O-])c1cn2c(n1)OC[C@@H](OCc1ccc(OC(F)(F)F)cc1)C2 [PRETOMANID],MIC90,[1],0.039 µg/mL
Cc1nn2c(O)cc(-c3ncccn3)nc2c1-c1ccc(Cl)cc1,MIC,[1],1.1 µg/mL
C[C@H]1COC2(CCN(c3nc(=O)c4cc(C(F)(F)F)cc([N+](=O)[O-])c4s3)CC2)O1 [BTZ-043],MIC,[8],1 ng/mL
CN[C@H]1[C@@H](O)[C@@H](NC)CC2O[C@@H]3O[C@H](C)C[C@@H](NC(=O)Cc4ccc(O)cn4)[C@]3(O)C[C@@H]21 (some centres not stated),MIC,[6],1.6 µg/mL
c1ccc(-c2c[nH]cn2)cc1,MIC,[1],< 10 µM
CO[C@H]1[C@@H](O)[C@H](n2ccc(=O)[nH]c2=O)O[C@@H]1[C@@H](O[C@H]1OC(C(=O)NC2CCC[C@@H](C)NC2=O)=C[C@H](O)[C@@H]1O)C(N)=O (some centres not stated),MIC,Mycobacterium avium [9],1 µg/mL
CCCCc1ccc(NC(=O)C2=CCN(C)C(C(O[C@@H]3O[C@H](CN)[C@@H](O)[C@H]3O)[C@H]3OC(n4ccc(=O)[nH]c4=O)[C@H](O)[C@@H]3O)C(=O)N2C)cc1 (some centres not stated),MIC,[10],1.56 µg/mL
CC(=O)NC[C@H]1CN(c2cc(F)c(C3=CCN(C(=O)[C@@H](O)CO)CC3)c(F)c2)C(=O)O1,MIC,[11],0.25 to 1 µg/mL
CC(=O)NC[C@H]1CN(c2ccc(N3CCSCC3)c(F)c2)C(=O)O1 [SUTEZOLID],MIC,[1],0.03 to 0.5 µg/mL
C[C@]1(COc2ccc(N3CCC(Oc4ccc(OC(F)(F)F)cc4)CC3)cc2)Cn2cc([N+](=O)[O-])nc2O1 [DELAMANID],MIC,[1],0.012 µg/mL
CC(=O)Nc1ccc(/C=N/NC(N)=S)cc1 [AMITHIOZONE],MIC,Mycobacterium avium [12],0.1 µg/mL
COc1ccc(/C(C)=N/NC(N)=S)cc1,MIC,[13],< 0.05 µg/mL
NC(=S)N/N=C/c1cccnc1 [NICOTHIAZONE],MIC,[13],3.1 µg/mL
Cc1ccc(C(=O)Nc2ccc([N+](=O)[O-])cc2)s1,MIC,[1],0.5 µg/mL
O=[N+]([O-])c1ccc(/C=N/Nc2nc(Nc3ccccc3)nc(N3CCOCC3)n2)o1,MIC,[1],0.63 µM
